Laboratory results taken from patent US7737250B2, “Peptides for treating axonal damage, inhibition of neurotransmitter release and pain transmission, and blocking calcium influx in neurons” (Mount Sinai School of Medicine of New York University, priority 2003, dated 2010).

Tested on: cell-surface myc-L1-CAM on ND-7 cells
Assay: L1-CAM diffusion behavior assay: movement of 9E10-coated beads bound to myc-L1-CAM (video microscopy, laser tweezers)
Type: cell-based, rat
Source text: Video microscopy, laser tweezers, and data analysis: The 9E10-coated latex beads were then placed and held with an optical gradient laser trap on the surface of transfected cells at a distance of between 0.5 and 1 μm from the leading edge for 2 seconds. The laser trap consisted of a Titanium Sapphire (Coherent; model 890) solid state laser pumped by a 5 W frequency-doubled Neodymnium Vanadate laser (Verdi; Coherent) and tuned to 800 nm. This wavelength was previously determined to generate the fewest heating artifacts in live cells (Svoboda and Block. Biomol Struct 1994;23:-247-285 and Choquet et al. Cell 1997;88:39-48). Laser power at the output of the Titanium Sapphire laser was 40 mW, and prepared beads were placed and held on the cell surface for less than 3 sec to further reduce the possibility of heating artifacts. Laser light was introduced through the television port of the Axiovert microscope.
Video images of bead movement were collected using a newvicon camera (Dage MTI; VE-1000N) and background subtraction and contrast enhancement were carried using a Hamamatsu Argus 20 image processor. Raw data were recorded to sVHS video tape for subsequent analysis. Video recordings were subsequently digitized onto an Intel processor-based computer running the Isee imaging software (Isee Imaging) running under Red Hat Linux 7.1. Quantification of bead movement was carried out in Isee. Diffusional analysis was carried out using a custom spreadsheet in Excel (Microsoft). This spreadsheet carries out 4 operations: first, it scales the data from pixel measurements to nm using the appropriate scale factor (determined by the magnification used to observe bead movement); second, it subtracts the first point from all of the data, to set the origin at 0,0 (x,y coordinates); third, it rotates (in two dimensional space) the data around the origin so that the orientation of the cell is the same from trial to trial (here, the data was set so that the cells all face to the left); and fourth, the spreadsheet calculates the mean square displacement (MSD) data which are used to calculate diffusion coefficients and bead velocity. Individual traces were scored blind for classes of behavior. Statistical analysis of percentages of trials was carried out using chi-squared analysis or a Fisher's exact probability test.
MSD values were calculated as previously described (see Qian et al, 1991; Biophysical Journal 60 p910). For these calculations, the squared displacement (a^2+b^2; where a=xn+t−xn, b=a=yn+t−yn for any two points separated by time t) of the bead was calculated between two points in the data set. The mean of the squared displacements was calculated for each time interval t=1 to m, where m is the time interval that equals 10% of the length of the data set. The mean displacement was plotted with respect to time giving a curve with a linear or quadratic shape, depending on the behavior of the bead. Diffusion rates and velocity were calculated by fitting the curve with the equation MSD=4Dt+v^2t^2, where D is the diffusion coefficient, v is the velocity and t is time. D and v were calculated for each bead independently and presented as averages or as individual values, as described in each case.
Cell culture and transfection: ND-7 cells (rat neuroblastoma/DRG hybrid cells) were plated and transfected with pMyc-L1-CAM, pMyc-L1-CAM-YF, pMyc-L1-CAM-YH, or pMyc-L1-CAM-STOP expression constructs as described in Example 3, supra.
In some instances, ND-7 cells transfected with pMyc-L1-CAM were treated with the cytoskeletal inhibitor cytochalasin D (2 μM; Sigma) or nocadazole (1 μM; Sigma). For these experiments treatment with DMSO (0.01%) vehicle alone served as the negative control.
In some instances, ND-7 cells transfected with pMyc-L1-CAM were treated with neural growth factor (NGF) to stimulate phosphorylation of tyrosine 1229 (Y1229) of the L1-CAM cytoplasmic domain, and thereby inhibit ankyrin binding. […]

[1] = ND-7 cells expressing myc-L1-CAM, 1.4 μg/ml peptide for 30 minutes

| Sequence | bead velocity compared to untreated controls (1.4 μg/ml peptide) | percentage of beads showing stationary behavior [1] | percentage of trials undergoing retrograde movement [1] |
| --- | --- | --- | --- |
| RQIKIWFQNRRMKWKKFQGIFSGDENFQ [AP-Scramble] | no significant effect | – | – |
| RQIKIWFQNRRMKWKKQFNEDGSFIGQF [AP-YF] | – | reduced | increase |
